As a reminder, the IC50 is the concentration at which inhibition is half-maximal.

The values that follow come from US20230338337A1, “BIOMARKERS FOR CANCER THERAPY USING MDM2 ANTAGONISTS” (OTSUKA PHARMACEUTICAL CO., LTD., priority 2019, published 2023).

For assay [1], the system named is SJSA-1. The assay can be described thus: Protocol B: CellTiter-Glo cell viability assay. The following applies: for IC50: read-out: SJSA1 IC50 (μM) (Protocol B); for SJSA1 (Protocol B) % inhibition at 10: at 10 μM.
In assay [2] the target is MDM2-p53 interaction (in vitro translated MDM2) (Homo sapiens (Human), UniProt Q00987). The assay can be described thus: MDM2-p53 interaction 96-well plate binding assay (ELISA). The settings on record: for MDM2 % inhibition at 0.0010: at 0.0010 μM; for MDM2 % inhibition at 0.0030: at 0.0030 μM. A general note: In an ELISA, binding on a coated surface is turned into a signal by an enzyme label.
MDM2-p53 interaction (in vitro translated MDM2), sequence (Q00987 whole entry): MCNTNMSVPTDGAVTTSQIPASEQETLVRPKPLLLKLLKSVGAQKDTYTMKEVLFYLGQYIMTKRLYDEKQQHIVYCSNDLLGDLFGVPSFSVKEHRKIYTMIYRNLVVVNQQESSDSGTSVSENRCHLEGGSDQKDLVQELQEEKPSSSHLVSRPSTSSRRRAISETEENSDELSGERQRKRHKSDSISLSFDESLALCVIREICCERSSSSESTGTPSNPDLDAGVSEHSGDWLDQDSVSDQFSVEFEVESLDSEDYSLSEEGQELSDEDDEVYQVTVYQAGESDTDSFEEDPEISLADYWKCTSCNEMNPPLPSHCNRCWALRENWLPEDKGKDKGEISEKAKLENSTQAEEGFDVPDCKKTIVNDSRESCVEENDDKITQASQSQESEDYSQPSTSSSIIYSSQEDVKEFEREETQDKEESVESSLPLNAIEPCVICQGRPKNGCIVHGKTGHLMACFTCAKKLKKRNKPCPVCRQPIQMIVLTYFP

Where two headings read alike, the source gives them in different places.

Regarding “1-({[(1R)-1-(4-chlorophenyl)-2-[(5-chloropyrimidin-2-yl)methyl]-7-fluoro-5-[1-hydroxy-1-(1-methyl-1H-imidazol-4-yl)propyl]-3-oxo-2,3-dihydro-1H-isoindol-1-yl]oxy}methyl)cyclopropane-1-carboxamide [Example 485]”, the IC50 in assay [1] (Protocol B) is 4.2 µM. Further, the “MDM2 % inhibition at 0.10” value in assay [2] (at 0.10 μM) is 58%@0.10. As to “2-{[(1R)-1-(4-chlorophenyl)-7-fluoro-5-[1-(4-fluoropiperidin-4-yl)-1-hydroxypropyl]-3-oxo-1-[(3S)-oxolan-3-yloxy]-2,3-dihydro-1H-isoindol-2-yl]methyl}pyrimidine-5-carbonitrile [Example 547]”, in assay [1] (Protocol B), the IC50 came to 0.96 µM. Also, the “MDM2 % inhibition at 0.0010” value in assay [2] is given as 82%@0.0010. As for “2-{[(1R)-1-(4-chlorophenyl)-7-fluoro-5-[1-hydroxy-1-(1-methyl-1H-imidazol-4-yl)propyl]-3-oxo-1-{[trans-3-hydroxycyclobutyl]methoxy}-2,3-dihydro-1H-isoindol-2-yl]methyl}pyrimidine-5-carbonitrile [Example 483]”, the IC50 in assay [1] (Protocol B) came out at 0.2 µM. In assay [2], the “MDM2 % inhibition at 0.0010” value came to 58%@0.0010.

Take “2-{[(1R)-1-(4-chlorophenyl)-7-fluoro-5-[(1R)-1-(4-fluorooxan-4-yl)-1-hydroxypropyl]-3-oxo-1-[(3S)-oxolan-3-yloxy]-2,3-dihydro-1H-isoindol-2-yl]methyl}pyrimidine-5-carbonitrile [Example 507]”: in assay [1] (Protocol B), the IC50 was determined as 0.02 µM. In addition, in assay [2], the “MDM2 % inhibition at 0.0030” value is 65%@0.0030. On to “2-{[(1R)-1-(4-chlorophenyl)-7-fluoro-5-[(1S)-1-(4-fluorooxan-4-yl)-1-hydroxypropyl]-3-oxo-1-[(3S)-oxolan-3-yloxy]-2,3-dihydro-1H-isoindol-2-yl]methyl}pyrimidine-5-carbonitrile [Example 508]”, for which the “SJSA1 (Protocol B) % inhibition at 10” value in assay [1] (Protocol B) was 11% at 10. Further, in assay [2] (at 0.10 μM), the “MDM2 % inhibition at 0.10” value worked out at 17%@0.10. Regarding “2-{[(1R)-1-(4-chlorophenyl)-7-fluoro-5-[(1S)-1-(4-fluorooxan-4-yl)-1-hydroxypropyl]-3-oxo-1-[cis-3-hydroxycyclobutoxy]-2,3-dihydro-1H-isoindol-2-yl]methyl}pyrimidine-5-carbonitrile [Example 506]”, in assay [1] (Protocol B), the IC50 was 3.4 µM. Moreover, the “MDM2 % inhibition at 0.030” value in assay [2] (at 0.030 μM) was 36%@0.030.

“5-{[(1R)-1-(4-chlorophenyl)-7-fluoro-5-[1-hydroxy-1-(1-methyl-1H-imidazol-4-yl)propyl]-3-oxo-1-[(3S)-oxolan-3-yloxy]-2,3-dihydro-1H-isoindol-2-yl]methyl}pyridine-2-carbonitrile [Example 432]”: the IC50 in assay [1] (Protocol B) was 6.2 µM. The “MDM2 % inhibition at 0.030” value in assay [2] (at 0.030 μM) amounted to 45%@0.030. Regarding “6-{[(1R)-1-(4-chlorophenyl)-7-fluoro-3-oxo-1-[(3S)-oxolan-3-yloxy]-5-[2,2,2-trifluoro-1-hydroxy-1-(1-methyl-1H-pyrazol-4-yl)ethyl]-2,3-dihydro-1H-isoindol-2-yl]methyl}pyridine-3-carbonitrile [Example 371]”, the concentration for half-maximal inhibition (IC50) in assay [1] (Protocol B) amounted to 2.3 µM. The “MDM2 % inhibition at 0.030” value in assay [2] (at 0.030 μM) is given as 43%@0.030. For “6-{[(1R)-1-(4-chlorophenyl)-7-fluoro-5-[1-(4-fluorooxan-4-yl)-1-hydroxypropyl]-1-(2-hydroxyethoxy)-3-oxo-2,3-dihydro-1H-isoindol-2-yl]methyl}pyridine-3-carbonitrile [Example 499]”, the IC50 in assay [1] (Protocol B) was found to be 0.053 µM. In addition, in assay [2], the “MDM2 % inhibition at 0.0010” value is recorded as 68%@0.0010. “6-{[(1R)-1-(4-chlorophenyl)-7-fluoro-5-[1-(4-fluorooxan-4-yl)-1-hydroxypropyl]-1-(2-hydroxyethoxy)-3-oxo-2,3-dihydro-1H-isoindol-2-yl]methyl}pyridine-3-carbonitrile [Example 500]”: in assay [1] (Protocol B), the “SJSA1 (Protocol B) % inhibition at 10” value came out at 16% at 10. Further, the “MDM2 % inhibition at 0.10” value in assay [2] (at 0.10 μM) was determined as 21%@0.10.

Take “6-{[(1R)-1-(4-chlorophenyl)-7-fluoro-5-[1-(4-fluorooxan-4-yl)-1-hydroxypropyl]-1-[(2R)-2-hydroxypropoxy]-3-oxo-2,3-dihydro-1H-isoindol-2-yl]methyl}pyridine-3-carbonitrile [Example 498]”: the “SJSA1 (Protocol B) % inhibition at 10” value in assay [1] (Protocol B) turned out to be 96% at 10. For the same substance, the “MDM2 % inhibition at 0.10” value in assay [2] (at 0.10 μM) was found to be 32%@0.10. On to “6-{[(1R)-1-(4-chlorophenyl)-7-fluoro-5-[1-hydroxy-1-(1-methyl-1H-imidazol-4-yl)butyl]-3-oxo-1-[(3S)-oxolan-3-yloxy]-2,3-dihydro-1H-isoindol-2-yl]methyl}pyridine-3-carbonitrile [Example 472]”, for which the concentration for half-maximal inhibition (IC50) in assay [1] (Protocol B) stood at 0.39 µM. In addition, in assay [2], the “MDM2 % inhibition at 0.0030” value was 48%@0.0030.

For “6-{[(1R)-1-(4-chlorophenyl)-7-fluoro-5-[1-hydroxy-1-(1-methyl-1H-pyrazol-4-yl)propyl]-3-oxo-1-[(3S)-oxolan-3-yloxy]-2,3-dihydro-1H-isoindol-2-yl]methyl}pyridine-3-carbonitrile [Example 359]”, in assay [1] (Protocol B), the concentration for half-maximal inhibition (IC50) is 3.9 µM. Further, the “MDM2 % at concentration” value in assay [2] (at 0.10 μM) turned out to be 50%@0.10. As to “6-{[(1R)-1-(4-chlorophenyl)-7-fluoro-5-{1-hydroxy-1-[trans-4-hydroxycyclohexyl]propyl}-3-oxo-1-[cis-3-hydroxycyclobutoxy]-2,3-dihydro-1H-isoindol-2-yl]methyl}pyridine-3-carbonitrile [Example 520]”, the half-inhibitory concentration (IC50) in assay [1] (Protocol B) stood at 3.9 µM. Besides, the “MDM2 % inhibition at 0.030” value in assay [2] (at 0.030 μM) was 32%@0.030. In the case of “(3R)-2-[(5-chloro-1-oxo-1λ^5-pyridin-2-yl)methyl]-3-(4-chlorophenyl)-4-fluoro-6-[1-hydroxy-1-(1-methyl-1H-pyrazol-4-yl)ethyl]-3-[(1-hydroxycyclopropyl)methoxy]-2,3-dihydro-1H-isoindol-1-one [Example 409]”, the concentration for half-maximal inhibition (IC50) in assay [1] (Protocol B) stood at 0.41 µM.

As to “(3R)-2-[(5-chloro-1-oxo-1λ^5-pyridin-2-yl)methyl]-3-(4-chlorophenyl)-4-fluoro-6-[1-hydroxy-1-(1-methyl-1H-pyrazol-4-yl)ethyl]-3-{[1-(hydroxymethyl)cyclopropyl]methoxy}-2,3-dihydro-1H-isoindol-1-one [Example 407]”, the half-maximal inhibitory concentration (IC50) in assay [1] (Protocol B) came out at 0.58 µM. The “MDM2 % at concentration” value in assay [2] is recorded as 62%@0.0010.

For “(3R)-3-(4-Chlorophenyl)-2-[(5-chloropyrimidin-2-yl)methyl]-4-fluoro-6-[1-hydroxy-1-(piperidin-4-yl)propyl]-3-[(3S)-oxolan-3-yloxy]-2,3-dihydro-1H-isoindol-1-one [Example 448]”, in assay [1] (Protocol B), the IC50 was 0.86 µM. In assay [2], the “MDM2 % inhibition at 0.0010” value is recorded as 84%@0.0010. Consider “(3R)-3-(4-chlorophenyl)-2-[(3,5-difluoropyridin-2-yl)methyl]-4-fluoro-6-[1-hydroxy-1-(1-methyl-1H-pyrazol-4-yl)ethyl]-3-[(1-hydroxycyclopropyl)methoxy]-2,3-dihydro-1H-isoindol-1-one [Example 350]”, for which, in assay [1] (Protocol B), the half-maximal inhibitory concentration (IC50) came out at 0.51 µM. Moreover, the “MDM2 % at concentration” value in assay [2] (at 0.030 μM) stood at 54%@0.030. In the case of “(3R)-3-(4-chlorophenyl)-2-[(3,5-difluoropyridin-2-yl)methyl]-4-fluoro-6-[1-hydroxy-1-(1-methyl-1H-pyrazol-4-yl)ethyl]-3-[(1-hydroxycyclopropyl)methoxy]-2,3-dihydro-1H-isoindol-1-one [Example 351]”, in assay [1] (Protocol B), the IC50 amounted to 4.3 µM. For the same substance, the “MDM2 % at concentration” value in assay [2] (at 0.10 μM) is 25%@0.10. For “(3R)-3-(4-chlorophenyl)-2-[(5-chloropyridin-2-yl)methyl]-4-fluoro-3-[(1-{[(2-hydroxyethyl)amino]methyl}cyclopropyl)methoxy]-6-(2-hydroxypropan-2-yl)-2,3-dihydro-1H-isoindol-1-one [Example 326]”, in assay [1] (Protocol B), the IC50 stood at 2 µM. In assay [2] (at 0.030 μM), the “MDM2 % at concentration” value was found to be 50%@0.030.

As for “(3R)-3-(4-chlorophenyl)-2-[(5-chloropyridin-2-yl)methyl]-4-fluoro-6-[1-hydroxy-1-(1-methyl-1H-pyrazol-4-yl)ethyl]-3-(2-hydroxyethoxy)-2,3-dihydro-1H-isoindol-1-one [Example 213]”, in assay [1] (Protocol B), the IC50 was 0.25 µM. Turning to “(3R)-3-(4-chlorophenyl)-2-[(5-chloropyridin-2-yl)methyl]-4-fluoro-6-[1-hydroxy-1-(1-methylpiperidin-4-yl)ethyl]-3-{[1-(hydroxymethyl)cyclopropyl]methoxy}-2,3-dihydro-1H-isoindol-1-one [Example 555]”, the IC50 in assay [1] (Protocol B) was determined as 0.079 µM. Besides, in assay [2], the “MDM2 % inhibition at 0.0010” value turned out to be 55%@0.0010. Regarding “(3R)-3-(4-chlorophenyl)-2-[(5-chloropyridin-2-yl)methyl]-4-fluoro-6-[1-hydroxy-1-(4-methyl-1H-imidazol-2-yl)ethyl]-3-[(1-hydroxycyclopropyl)methoxy]-2,3-dihydro-1H-isoindol-1-one [Example 332]”, the IC50 in assay [1] (Protocol B) came out at 2.6 µM. Besides, the “MDM2 % at concentration” value in assay [2] (at 0.030 μM) turned out to be 60%@0.030. For “(3R)-3-(4-chlorophenyl)-2-[(5-chloropyrimidin-2-yl)methyl]-4-fluoro-6-{1-hydroxy-1-[trans-4-hydroxycyclohexyl}-3-[cis-3-hydroxycyclobutoxy]-2,3-dihydro-1H-isoindol-1-one: *fast eluting isomer [Example 496]”, the half-inhibitory concentration (IC50) in assay [1] (Protocol B) was 1.8 µM. Turning to “(3S)-3-(4-chlorophenyl)-3-[(1R)-1-(4-chlorophenyl)-5-(1-cyclobutyl-1-hydroxyethyl)-7-fluoro-1-methoxy-3-oxo-2,3-dihydro-1H-isoindol-2-yl]propanoic acid [Example 103]”, the IC50 in assay [1] (SJSA-1, CellTiter-Glo, 72 hrs) came to 0.8 µM. The same measure, in the same setting: under “(3S)-3-(4-chlorophenyl)-3-[(1R)-1-(4-chlorophenyl)-7-fluoro-5-[1-hydroxy-1-(oxan-4-yl)ethyl]-1-methoxy-3-oxo-2,3-dihydro-1H-isoindol-2-yl]propanoic acid [Example 88]” stands 0.23 µM.
